Measurements published in patent US9365619B2, “IgG-binding peptide and method for detecting and purifying IgG using same” (Otsuka Chemical Co., Ltd., priority 2011, dated 2016).
Read-outs that look alike come from different tables or passages of the source. Bridge positions count the residues as written; N and C are the ends. Peptide text beside a SMILES is read from it.

Biological target: human IgG
Test: Surface plasmon resonance (SPR) analysis of synthetic peptide binding to human IgG
Settings: for affinity compared with the original peptide, in words: compared with GFc-C35-3/15; for fold increase in affinity (fold decrease in Kd value): relative to original peptide GFc-C35-3/15
Method: In order to narrow down the amino acid region to be studied, a peptide in which one amino acid was deleted from each end of GFc-C35 (GFc-C35-2/16) and a peptide in which two amino acids were deleted from each end of CFc-C35 (GFc-C35-3/15) were synthesized. Among these peptides, based on the GFc-C35-3/15 synthetic peptide, the effect of the introduction of amino acid mutations on affinity was evaluated. That is, the contribution of each amino acid substitution to affinity was evaluated by synthesizing peptides substituted with frequently or occasionally observed amino acids obtained from the phage libraries and subjecting the resulting synthetic peptides to binding analysis.
Based on the synthetic peptide C35A, peptides substituted with amino acids observed at high frequency in the aforementioned phage libraries were synthesized by introducing amino acid mutations, and in a similar manner to the above, their binding to human IgG was analyzed by surface plasmon resonance (SPR) analysis to evaluate the contribution of each amino acid substitution to affinity.

[1] = SPR, synthetic peptide binding to human IgG, read-out: Kd
[2] = SPR sensorgram analysis, human IgG
[3] = SPR sensorgram analysis, human IgG, read-out: affinity (Kd value)

Compound | Kd [1] | affinity compared with the original peptide, in words | other results
CC(C)C[C@@H]1NC(=O)[C@H](CC(N)=O)NC(=O)CNC(=O)[C@H](CC(N)=O)NC(=O)[C@H]([C@@H](C)O)NC(=O)[C@H](Cc2ccc(O)cc2)NC(=O)[C@H]([C@@H](C)O)NC(=O)[C@@H](NC(=O)[C@@H](N)CCCNC(=N)N)CSSC[C@@H](C(=O)N[C@H](C(N)=O)[C@@H](C)O)NC(=O)[C@H](Cc2c[nH]c3ccccc23)NC(=O)[C@H](C(C)C)NC1=O [GFc-C35-3/15 (D3R), RCTYTNGNLVWCT] (H-RCTYTNGNLVWCT-NH2; disulfide 2-12) | 69 µM | an increase in affinity | –
CSCC[C@@H]1NC(=O)[C@H](CC(N)=O)NC(=O)CNC(=O)[C@H](CC(N)=O)NC(=O)[C@H]([C@@H](C)O)NC(=O)[C@H](Cc2ccc(O)cc2)NC(=O)[C@H]([C@@H](C)O)NC(=O)[C@@H](NC(=O)[C@@H](N)CC(=O)O)CSSC[C@@H](C(=O)N[C@H](C(N)=O)[C@@H](C)O)NC(=O)[C@H](Cc2c[nH]c3ccccc23)NC(=O)[C@H](C(C)C)NC1=O [GFc-C35-3/15 (L11M), DCTYTNGNMVWCT] (H-DCTYTNGNMVWCT-NH2; disulfide 2-12) | 280 µM | a decrease in affinity | –
CC(C)C[C@@H]1NC(=O)[C@H](CC(N)=O)NC(=O)CNC(=O)[C@H](CC(C)C)NC(=O)[C@H]([C@@H](C)O)NC(=O)[C@H](Cc2ccc(O)cc2)NC(=O)[C@H]([C@@H](C)O)NC(=O)[C@@H](NC(=O)[C@@H](N)CC(=O)O)CSSC[C@@H](C(=O)N[C@H](C(N)=O)[C@@H](C)O)NC(=O)[C@H](Cc2c[nH]c3ccccc23)NC(=O)[C@H](C(C)C)NC1=O [GFc-C35-3/15 (N8L), DCTYTLGNLVWCT] (H-DCTYTLGNLVWCT-NH2; disulfide 2-12) | 260 µM | greatly degreased affinity | –
CC(C)C[C@@H]1NC(=O)[C@H](CC(N)=O)NC(=O)CNC(=O)[C@H](CCCNC(=N)N)NC(=O)[C@H]([C@@H](C)O)NC(=O)[C@H](Cc2ccc(O)cc2)NC(=O)[C@H]([C@@H](C)O)NC(=O)[C@@H](NC(=O)[C@@H](N)CC(=O)O)CSSC[C@@H](C(=O)N[C@H](C(N)=O)[C@@H](C)O)NC(=O)[C@H](Cc2c[nH]c3ccccc23)NC(=O)[C@H](C(C)C)NC1=O [GFc-C35-3/15 (N8R), DCTYTRGNLVWCT] (H-DCTYTRGNLVWCT-NH2; disulfide 2-12) | 8 µM | greatly increased affinity | fold increase in affinity (fold decrease in Kd value): approximately 18 fold
CC(C)C[C@@H]1NC(=O)[C@H](CC(=O)O)NC(=O)CNC(=O)[C@H](CC(N)=O)NC(=O)[C@H]([C@@H](C)O)NC(=O)[C@H](Cc2ccc(O)cc2)NC(=O)[C@H]([C@@H](C)O)NC(=O)[C@@H](NC(=O)[C@@H](N)CC(=O)O)CSSC[C@@H](C(=O)N[C@H](C(N)=O)[C@@H](C)O)NC(=O)[C@H](Cc2c[nH]c3ccccc23)NC(=O)[C@H](C(C)C)NC1=O [GFc-C35-3/15 (N10D), DCTYTNGDLVWCT] (H-DCTYTNGDLVWCT-NH2; disulfide 2-12) | 80 µM | more or less improved affinity | –
CC(C)C[C@@H]1NC(=O)[C@H](CCC(=O)O)NC(=O)CNC(=O)[C@H](CC(N)=O)NC(=O)[C@H]([C@@H](C)O)NC(=O)[C@H](Cc2ccc(O)cc2)NC(=O)[C@H]([C@@H](C)O)NC(=O)[C@@H](NC(=O)[C@@H](N)CC(=O)O)CSSC[C@@H](C(=O)N[C@H](C(N)=O)[C@@H](C)O)NC(=O)[C@H](Cc2c[nH]c3ccccc23)NC(=O)[C@H](C(C)C)NC1=O [GFc-C35-3/15 (N10E), DCTYTNGELVWCT] (H-DCTYTNGELVWCT-NH2; disulfide 2-12; N-terminus and C-terminus assumed) | 26 µM | higher affinity than the original peptide | –
CC(C)C[C@@H]1NC(=O)[C@H](CCC(N)=O)NC(=O)CNC(=O)[C@H](CC(N)=O)NC(=O)[C@H]([C@@H](C)O)NC(=O)[C@H](Cc2ccc(O)cc2)NC(=O)[C@H]([C@@H](C)O)NC(=O)[C@@H](NC(=O)[C@@H](N)CC(=O)O)CSSC[C@@H](C(=O)N[C@H](C(N)=O)[C@@H](C)O)NC(=O)[C@H](Cc2c[nH]c3ccccc23)NC(=O)[C@H](C(C)C)NC1=O [GFc-C35-3/15 (N10Q), DCTYTNGQLVWCT] (H-DCTYTNGQLVWCT-NH2; disulfide 2-12; N-terminus and C-terminus assumed) | 160 µM | almost equal affinity | –
CC(C)C[C@@H]1NC(=O)[C@H](CCCNC(=N)N)NC(=O)CNC(=O)[C@H](CC(N)=O)NC(=O)[C@H]([C@@H](C)O)NC(=O)[C@H](Cc2ccc(O)cc2)NC(=O)[C@H]([C@@H](C)O)NC(=O)[C@@H](NC(=O)[C@@H](N)CC(=O)O)CSSC[C@@H](C(=O)N[C@H](C(N)=O)[C@@H](C)O)NC(=O)[C@H](Cc2c[nH]c3ccccc23)NC(=O)[C@H](C(C)C)NC1=O [GFc-C35-3/15 (N10R), DCTYTNGRLVWCT] (H-DCTYTNGRLVWCT-NH2; disulfide 2-12) | 42 µM | higher affinity than the original peptide | –
CC(C)C[C@@H]1NC(=O)[C@H](CC(N)=O)NC(=O)CNC(=O)[C@H](CC(N)=O)NC(=O)[C@H]([C@@H](C)O)NC(=O)[C@H](Cc2ccc(O)cc2)NC(=O)[C@H](C)NC(=O)[C@@H](NC(=O)[C@@H](N)CC(=O)O)CSSC[C@@H](C(=O)N[C@H](C(N)=O)[C@@H](C)O)NC(=O)[C@H](Cc2c[nH]c3ccccc23)NC(=O)[C@H](C(C)C)NC1=O [GFc-C35-3/15 (T5A), DCAYTNGNLVWCT] (H-DCAYTNGNLVWCT-NH2; disulfide 2-12) | 61 µM | highest affinity | –
CC(C)C[C@@H]1NC(=O)[C@H](CCC(=O)O)NC(=O)CNC(=O)[C@H](CCCNC(=N)N)NC(=O)[C@H](Cc2c[nH]cn2)NC(=O)[C@H](Cc2ccc(O)cc2)NC(=O)[C@H](C)NC(=O)[C@@H](NC(=O)[C@@H](N)CC(=O)O)CSSC[C@@H](C(=O)N[C@H](C(N)=O)[C@@H](C)O)NC(=O)[C@H](Cc2c[nH]c3ccccc23)NC(=O)[C@H](C(C)C)NC1=O [GFc-C35-3/15 (T5A, T7H, N8R, N10E), DCAYHRGELVWCT] (H-DCAYHRGELVWCT-NH2; disulfide 2-12) | – | – | association rate constant ka [2]: 4.6×10^5 M^−1S^−1; dissociation rate constant kd [2]: 2.5×10^−2 S^−1; Kd [3]: 0.054 µM; fold increase in affinity (fold decrease in Kd value): approximately 2400 fold
CC(C)C[C@@H]1NC(=O)[C@H](CCC(=O)O)NC(=O)CNC(=O)[C@H](CCCNC(=N)N)NC(=O)[C@H](Cc2c[nH]cn2)NC(=O)[C@H](Cc2c[nH]c3ccccc23)NC(=O)[C@H](C)NC(=O)[C@@H](NC(=O)[C@@H](N)CC(=O)O)CSSC[C@@H](C(=O)N[C@H](C(N)=O)[C@@H](C)O)NC(=O)[C@H](Cc2c[nH]c3ccccc23)NC(=O)[C@H](C(C)C)NC1=O [GFc-C35-3/15 (T5A, Y6W, T7H, N8R, N10E), DCAWHRGELVWCT] | 0.26 µM | – | association rate constant ka [2]: 5.4×10^4 M^−1S^−1; dissociation rate constant kd [2]: 1.4×10^−2 S^−1; Kd [3]: 0.257 µM; association rate constant ka relative to GFc-C35-3/15 (T5A, T7H, N8R, N10E) (SPR, human IgG): ⅛
CC(C)C[C@@H]1NC(=O)[C@H](CC(N)=O)NC(=O)CNC(=O)[C@H](CC(N)=O)NC(=O)[C@H]([C@@H](C)O)NC(=O)[C@H](Cc2ccc(O)cc2)NC(=O)[C@H](CO)NC(=O)[C@@H](NC(=O)[C@@H](N)CC(=O)O)CSSC[C@@H](C(=O)N[C@H](C(N)=O)[C@@H](C)O)NC(=O)[C@H](Cc2c[nH]c3ccccc23)NC(=O)[C@H](C(C)C)NC1=O [GFc-C35-3/15 (T5S), DCSYTNGNLVWCT] (H-DCSYTNGNLVWCT-NH2; disulfide 2-12) | 120 µM | – | –
CC(C)C[C@@H]1NC(=O)[C@H](CC(N)=O)NC(=O)CNC(=O)[C@H](CC(N)=O)NC(=O)[C@H](Cc2c[nH]cn2)NC(=O)[C@H](Cc2ccc(O)cc2)NC(=O)[C@H]([C@@H](C)O)NC(=O)[C@@H](NC(=O)[C@@H](N)CC(=O)O)CSSC[C@@H](C(=O)N[C@H](C(N)=O)[C@@H](C)O)NC(=O)[C@H](Cc2c[nH]c3ccccc23)NC(=O)[C@H](C(C)C)NC1=O [GFc-C35-3/15 (T7H), DCTYHNGNLVWCT] (H-DCTYHNGNLVWCT-NH2; disulfide 2-12) | 3 µM | – | –
CC(C)C[C@@H]1NC(=O)[C@H](CC(N)=O)NC(=O)CNC(=O)[C@H](CCCNC(=N)N)NC(=O)[C@H](Cc2c[nH]cn2)NC(=O)[C@H](Cc2ccc(O)cc2)NC(=O)[C@H]([C@@H](C)O)NC(=O)[C@@H](NC(=O)[C@@H](N)CC(=O)O)CSSC[C@@H](C(=O)N[C@H](C(N)=O)[C@@H](C)O)NC(=O)[C@H](Cc2c[nH]c3ccccc23)NC(=O)[C@H](C(C)C)NC1=O [GFc-C35-3/15 (T7H, N8R), DCTYHRGNLVWCT] (H-DCTYHRGNLVWCT-NH2; disulfide 2-12) | 1.1 µM | – | –
